For 22 compounds, melting point and IC50 results are on record in patent US20090203708A1, “NOVEL SUBSTITUTED-1-H-QUINAZOLINE-2,4-DIONE DERIVATIVES, PREPARATION METHOD THEREOF AND PHARMACEUTICAL COMPOSITION CONTAINING THE SAME” (Korea Research Institute of Chemical Technology, priority 2006, published 2009).

The melting point is the temperature, or range, at which the solid turns liquid. A word on the IC50: it is the point on the concentration scale where inhibition reaches its midpoint.

The target of data set [1] is human serotonin 5-HT6 receptor (Homo sapiens, UniProt P50406). The data set can be described thus: [3H]LSD binding assay for cloned 5-HT6 receptors.
Chain of human serotonin 5-HT6 receptor (P50406 whole entry): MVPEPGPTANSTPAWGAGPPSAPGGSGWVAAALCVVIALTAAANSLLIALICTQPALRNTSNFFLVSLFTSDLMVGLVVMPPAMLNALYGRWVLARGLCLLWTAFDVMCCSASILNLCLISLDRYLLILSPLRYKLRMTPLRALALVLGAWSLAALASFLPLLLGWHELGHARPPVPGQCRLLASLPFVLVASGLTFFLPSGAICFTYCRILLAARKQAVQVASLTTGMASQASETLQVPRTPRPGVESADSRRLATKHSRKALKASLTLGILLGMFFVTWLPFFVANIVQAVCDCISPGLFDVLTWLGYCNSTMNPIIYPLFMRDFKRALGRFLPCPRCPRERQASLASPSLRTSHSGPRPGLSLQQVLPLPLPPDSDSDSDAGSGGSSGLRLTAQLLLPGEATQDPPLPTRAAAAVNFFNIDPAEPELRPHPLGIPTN

In turn, `CC(C)CCn1c(=O)c2c(N3CCN(C)CC3)cc(Cl)cc2n(Cc2ccccc2)c1=O` [Example 5, 1-benzyl-7-chloro-3-(3-methyl-butyl)-5-(4-methyl-piperazin-1-yl)-1H-quinazoline-2,4-dione] gave a melting point of 62 to 68 °C. The same compound gave an IC50 in data set [1] of 3.6 nM.

`CN1CCN(c2cc(Cl)cc3c2c(=O)n(Cc2cccc(Br)c2)c(=O)n3Cc2ccccc2)CC1` [Example 15, 1-benzyl-3-(3-bromo-benzyl)-7-chloro-5-(4-methyl-piperazin-1-yl)-1H-quinazoline-2,4-dione] returned a melting point of 154 to 157 °C. Further, the 50% inhibitory concentration (IC50) in data set [1] came out at 2.7 nM.

In turn, `CN1CCN(c2cc(Cl)cc3c2c(=O)n(CC2CCCCC2)c(=O)n3Cc2ccccc2)CC1` [Example 6, 1-benzyl-7-chloro-3-cyclohexylmethyl-5-(4-methyl-piperazin-1-yl)-1H-quinazoline-2,4-dione] gave a melting point of 163 to 169 °C. Also, the IC50 in data set [1] was found to be 4.2 nM.

In turn, `CN1CCN(c2cc(Cl)cc3c2c(=O)n(-c2ccccc2)c(=O)n3Cc2ccccc2)CC1` [Example 8, 1-benzyl-7-chloro-5-(4-methyl-piperazin-1-yl)-3-phenyl-1H-quinazoline-2,4-dione] yielded a melting point of 111 to 119 °C. The compound also returned a half-inhibitory concentration (IC50) in data set [1] of 167 nM.

`O=c1c2c(N3CCNCC3)cc(Cl)cc2n(Cc2ccccc2)c(=O)n1Cc1ccccc1` [Example 57, 1,3-dibenzyl-7-chloro-5-piperazin-1-yl-1H-quinazoline-2,4-dione]: the melting point was 115 to 123 °C. In data set [1], the IC50 stood at 3.4 nM.

Turning to `COc1ccc(Cn2c(=O)c3c(N4CCN(C)CC4)cc(Cl)cc3n(Cc3ccccc3)c2=O)cc1` [Example 27, 1-benzyl-7-chloro-3-(4-methoxy-benzyl)-5-(4-methyl-piperazin-1-yl)-1H-quinazoline-2,4-dione], the melting point fell in the range of 81 to 89 °C. In data set [1], the IC50 amounted to 10.2 nM.

`COc1ccccc1Cn1c(=O)c2c(N3CCNCC3)cc(Cl)cc2n(Cc2ccccc2)c1=O` [Example 63, 1-benzyl-7-chloro-3-(2-methoxy-benzyl)-5-piperazin-1-yl-1H-quinazoline-2,4-dione] displayed a melting point of 122 to 125 °C. The 50% inhibitory concentration (IC50) in data set [1] worked out at 2.3 nM.

Compound `CN1CCN(c2cc(Cl)cc3c2c(=O)n(Cc2cccc(N)c2)c(=O)n3Cc2ccccc2)CC1` [Example 35, 3-(3-amino-benzyl)-1-benzyl-7-chloro-5-(4-methyl-piperazin-1-yl)-1H-quinazoline-2,4-dione] showed a melting point of 260 to 265 °C. The compound also came in with an IC50 in data set [1] of 40.2 nM.

`O=c1c2c(N3CCNCC3)cc(Cl)cc2n(Cc2ccccc2)c(=O)n1Cc1ccccc1O` [Example 65, 1-benzyl-7-chloro-3-(2-hydroxy-benzyl)-5-piperazin-1-yl-1H-quinazoline-2,4-dione] returned a melting point of 113 to 130 °C. The compound also gave an IC50 in data set [1] of 5.9 nM.

The compound `O=c1c2c(N3CCNCC3)cc(Cl)cc2n(Cc2ccccc2)c(=O)n1Cc1ccccc1[N+](=O)[O-]` [Example 66, 1-benzyl-7-chloro-3-(2-nitro-benzyl)-5-piperazin-1-yl-1H-quinazoline-2,4-dione] registered a melting point of 129 to 134 °C. This compound yielded an IC50 in data set [1] of 5.7 nM.

Compound `CN1CCN(c2cc(Cl)cc3c2c(=O)n(Cc2ccc(N)cc2)c(=O)n3Cc2ccccc2)CC1` [Example 36, 3-(4-amino-benzyl)-1-benzyl-7-chloro-5-(4-methyl-piperazin-1-yl)-1H-quinazoline-2,4-dione] yielded a melting point of 93 to 96 °C. Moreover, in data set [1], the IC50 was 22.1 nM.

`CCn1c(=O)c2c(N3CCN(C)CC3)cc(Cl)cc2n(Cc2ccccc2)c1=O` [Example 2, 1-benzyl-7-chloro-3-ethyl-5-(4-methyl-piperazin-1-yl)-1H-quinazoline-2,4-dione] registered a melting point of 155 to 159 °C. In data set [1], this compound displayed an IC50 of 3.1 nM.

Take `COc1cccc(Cn2c(=O)c3c(N4CCNCC4)cc(Cl)cc3n(Cc3ccccc3)c2=O)c1` [Example 64, 1-benzyl-7-chloro-3-(3-methyoxy-benzyl)-5-piperazin-1-yl-1H-quinazoline-2,4-dione]: the melting point lay in the range of 124 to 130 °C. The same compound displayed an IC50 in data set [1] of 6.4 nM.

With `CN1CCN(c2cc(Cl)cc3[nH]c(=O)n(Cc4ccccc4)c(=O)c23)CC1` [Example 49, 3-benzyl-7-chloro-5-(4-methyl-piperazin-1-yl)-1H-quinazoline-2,4-dione], the melting point fell in the range of 208 to 210 °C. Moreover, the IC50 in data set [1] is more than 1000 nM.

On to `CN1CCN(c2cc(Cl)cc3c2c(=O)n(Cc2ccccc2O)c(=O)n3Cc2ccccc2)CC1` [Example 28, 1-benzyl-7-chloro-3-(2-hydroxy-benzyl)-5-(4-methyl-piperazin-1-yl)-1H-quinazoline-2,4-dione], for which the melting point lay within 130 to 132 °C. In data set [1], this compound yielded an IC50 of 2.5 nM.

On to `COc1ccc(-n2c(=O)c3c(N4CCN(C)CC4)cc(Cl)cc3n(Cc3ccccc3)c2=O)cc1` [Example 9, 1-benzyl-7-chloro-3-(4-methoxy-phenyl)-5-(4-methyl-piperazin-1-yl)-1H-quinazoline-2,4-dione], for which the melting point lay in the range of 155 to 158 °C. In data set [1], the IC50 was found to be 12.4 nM.

As for `CN1CCN(c2cc(Cl)cc3c2c(=O)n(Cc2ccc([N+](=O)[O-])cc2)c(=O)n3Cc2ccccc2)CC1` [Example 33, 1-benzyl-7-chloro-5-(4-methyl-piperazin-1-yl)-3-(4-nitro-benzyl)-1H-quinazoline-2,4-dione], the melting point is 109 to 113 °C. The compound also came in with an IC50 in data set [1] of 15.4 nM.

In turn, `COc1cccc(Cn2c(=O)c3c(N4CCN(C)CC4)cc(Cl)cc3n(Cc3ccccc3)c2=O)c1` [Example 26, 1-benzyl-7-chloro-3-(3-methoxy-benzyl)-5-(4-methyl-piperazin-1yl)-1H-quinazoline-2,4-dione] displayed a melting point of 98 to 110 °C. In data set [1], this compound gave an IC50 of 7.9 nM.

The compound `CN1CCN(c2cc(Cl)cc3c2c(=O)n(Cc2ccccc2)c(=O)n3C)CC1` [Example 50, 3-benzyl-7-chloro-1-methyl-5-(4-methyl-piperazin-1-yl)-1H-quinazoline-2,4-dione] showed a melting point of 132 to 136 °C. The same compound registered an IC50 in data set [1] of more than 1000 nM.

In turn, `CN1CCN(c2cc(Cl)cc3c2c(=O)n(Cc2cccc4ccccc24)c(=O)n3Cc2ccccc2)CC1` [Example 46, 1-benzyl-7-chloro-5-(4-methyl-piperazin-1-yl)-3-naphthalen-1-ylmethyl-1H-quinazoline-2,4-dione] registered a melting point of 75 to 89 °C. In data set [1], this compound returned an IC50 of 3.2 nM.

`Cc1cccc(Cn2c(=O)c3c(N4CCN(C)CC4)cc(Cl)cc3n(Cc3ccccc3)c2=O)c1` [Example 23, 1-benzyl-7-chloro-3-(3-methyl-benzyl)-5-(4-methyl-piperazin-1-yl)-1H-quinazoline-2,4-dione] showed a melting point of 171 to 175 °C. The IC50 in data set [1] was determined as 2.6 nM.

For the compound `CN1CCN(c2cc(Cl)cc3c2c(=O)n(Cc2ccncc2)c(=O)n3Cc2ccccc2)CC1` [Example 48, 1-benzyl-7-chloro-5-(4-methyl-piperazin-1-yl)-3-pyridin-4-ylmethyl-1H-quinazoline-2,4-dione], the melting point lay within 94 to 100 °C. Also, the IC50 in data set [1] was determined as 33.3 nM.
